Assay results from patent US11046647B2, “Activators of the unfolded protein response” (The Board of Trustees of the University of Illinois, priority 2018, dated 2021).

Legend:
MCF-7 tumors = test: MCF-7 orthotopic tumor model; assay type: in vivo, mouse
Procedure: FIG. 39. SERK-F6 eradicates wild-type ERα tumors via hyperactivation of aUPR. a, MCF-7 orthotopic tumors were established in Nu/J ovariectomized mice supplemented with a 60 day E2 pellet (0.36 mg) and grown to ˜400 mm^3 (28 days to establish), randomized, then treated with vehicle daily (n=3), vehicle weekly (n=3), fulv. weekly (5 mg/mouse, s.c., n=6), SERK-F6 daily (10 or 40 mg/kg p.o.). Vehicle arms were averaged. p values: *: p≤0.05, **: p≤0.01, ***: p≤0.001, ****: p≤0.0001. Tumor images were taken at the end of the study (day 21) and are representative of all tumors (n=6). b-e, MCF-7 cells were orthotopically bi-laterally grafted and tumors were grown until total tumor burden was ˜400 mm^3 prior to daily treatment with vehicle or SERK-F6 (40 mg/kg p.o.). Mice (n=5 per arm) were sacrificed after 3 days (b,c) and 7 days (d,e) and tumors harvested. […] Vinculin (Vin) was used as a loading control. […] Error bars represent S.E.M.
To probe the efficacy of SERK-F6 for killing ERα positive tumors, large MCF-7 tumors were grown and then intervened with therapy. […] The mice were then sacrificed prior to complete tumor eradication.

[1] = tested on: MYS and MDG cells (MCF-7 with Y537S or D538G ERα) tumors; test: MYS-luc / MDG-luc orthotopic tumors; assay type: in vivo, mouse; conditions: daily dosing
Excerpt: FIG. 41. […]
FIG. 43. SERK-F6-mediated eradication of MYS/MDG tumors is dependent on quantitative cell killing. a-b, MYS-luc. orthotopic tumors were established in NSG ovariectomized mice (no E2 pellet, ˜45 days to establish) and dosed daily as indicated (n=5-6), b, Treatment of MYS-luc, tumors were stopped after 21 daily doses of SERK-F6 and mice tumor burden was tracked via bioluminescence. […]

MDG-luc. cells = test: Metastatic model, MDG-luc cells injected into the tail-vein; assay type: in vivo, mouse; conditions: daily dosing
Excerpt: FIG. 41. SERK-F6 eradicates mutant ERα primary and metastatic breast cancer. a-c, TYS-luc. orthotopic tumors were established in NSG ovariectomized mice (no E2 pellet, 60 days to establish) and dosed daily as indicated (n=5-6). b, representative examples of bioluminescence images of SERK-F6 treated mice (7 days). d,e, TDG-luc. orthotopic tumors were established in NSG ovariectomized mice (no E2 pellet, 120 days to establish) and dosed daily as indicated (n=4-5). e, Bioluminescence image of SERK-F6 treated mouse with TDG-luc. tumor burden after 7 days. f, MYS-luc. orthotopic tumors were established in NSG ovariectomized mice (no E2 pellet, 45 days to establish) and dosed daily as indicated (n=4-5). g, MDG-luc. orthotopic tumors were established in NSG ovariectomized mice (no E2 pellet, 45 days to establish) and dosed daily as indicated (n=4-5). h, Metastatic model with MDG-luc. cells injected into the tail-vein of NSG ovariectomized mice (no E2 pellet, 1.5 months to establish) and mice were dosed daily as indicated (n=4-5).

[2] = tested on: ERα Negative MCF-10A cells; test: Trypan Blue exclusion cell death assay, MCF-10A; assay type: cell-based; conditions: 75 nM, 24 hours
Excerpt: TRYPAN BLUE: For decades, viable cells have been measured by their ability to exclude the dye Trypan Blue. […] Dead cells, which have lost membrane integrity, take up the dye and are blue. Thus, the percentage of dead cells is the percentage of cells that are Trypan Blue positive out of the total cell population. Quantitative assessment of Trypan Blue uptake uses a cell counter from Fisher. Since the assay is instrument based, there is no observer bias in determining the percentage of Trypan Blue positive cells.
TRYPAN BLUE ASSAYS: Assays are performed on cells in 6 well plates: 300,000 cells are plated in each well of a 6-well plate in 3 ml of medium. After 24 hours, the DMSO vehicle or the indicated compound is added (in 1000th of the vol.) The cells incubated for an additional 24 hours, and then harvested in 0.25 ml of trypsin, followed after harvest by 0.75 ml of medium. The cells are spun down and resuspended in 100-200 μl of medium left that is over the cell pellet (resuspend cells by pipetting up and down a few times). Add 10 μl to 10 μl of trypan blue. Then 10 μl is inserted into the counting slide. After inserting the slide into the Fisher TC20 counting is automatic (these many cells are needed because an accurate ratio of Trypan Blue positive to Trypan Blue negative cells requires about 200 cells in the field the instrument counts).
In FIG. 28, neither the test compounds nor BHPI kill non-tumorigenic ERα Negative MCF-10A breast cells. ERα Negative MCF-10A cells were maintained for 24 hours in DMSO vehicle or 75 nM of BHPI or 75 nM of each of the indicated test compounds: 4, 6 and 105. Cell death was determined using the instrument-based Trypan Blue exclusion assay. (n=3±SEM).

T47D, TYS and TDG cells = test: MTS proliferation assay (4 days), T47D, TYS and TDG; assay type: cell-based, human
Procedure: FIG. 30 compares the ability of BHPI and test compounds to inhibit proliferation of T47D, TYS and TDG cells. T47D cells were in medium containing 10 FBS (which contains estrogen), TYS-4 and TDG-1 cells were in medium containing 10% cd-FBS (estrogen depleted). Cells are plated at 2,000 cells/well in 96 well plates. After 24 hours in medium containing FBS or charcoal-dextran treated FBS (depleted of endogenous estrogens), the indicated concentration of each compound (in DMSO at 1/1000th of the volume of medium) was added. After 2 days the medium was changed, and the compounds were added again. After 2 additional days (4 days total) MTS assays are used to evaluate cell proliferation. (n=6 ±S.E.M.).

Row | Structure (SMILES) | UPR markers in tumors (western blot) (MCF-7 tumors; 40 mg/kg p.o., 3 and 7 days) | murine weight during the study (MCF-7 tumors; daily treatment) | tumor response (MCF-7 tumors; large established MCF-7 tumors, SERK-F6 10 or 40 mg/kg p.o. daily, fulv. 5 mg/mouse s.c. weekly) | tumor response [1] | metastatic tumor burden (MDG-luc. cells) | cell death of MCF-10A cells [2] | effectiveness in killing compared with BHPI (T47D, TYS and TDG cells)
1 | O=C1Nc2c(C(F)(F)F)cccc2C1(c1ccc(O)cc1)c1ccc(OC(F)(F)F)cc1 (single isomer, unassigned; (-)) [(−)-105, 3-(4-hydroxyphenyl)-3-(4-(trifluoromethoxy)phenyl)-7-(trifluoromethyl)indolin-2-one] | increases in P-PERK and P-eiF2alpha levels | did not lead to any change in murine weight | dramatic tumor regressions | Dramatic tumor regressions were observed | eradicates metastatic tumor burden | – | –
2 | O=C1Nc2c(C(F)(F)F)cccc2C1(c1ccc(O)cc1)c1ccc(OC(F)(F)F)cc1 (racemic) [(±)-105, 3-(4-hydroxyphenyl)-3-(4-(trifluoromethoxy)phenyl)-7-(trifluoromethyl)indolin-2-one] | – | – | – | – | – | neither BHPI nor any of the test compounds induce significant death | more effective than BHPI
